Measurements from US9080220B2 (priority 2006, dated 2015).
Like-named read-outs stand apart in the source and are kept apart here.

Tested on: inflammatory hyperalgesia induced by carrageenan on a rat's paw
Design: species or system rat (male Sprague Dawley)
Details: in vivo, ip

## CN1CC[C@]23c4c5ccc(O)c4O[C@H]2[C@@H](O)C=C[C@H]3[C@H]1C5 [morphine]
0.3 mg/kg
  protection against hyperalgesia induced by carrageenan: does not induce statistically significant protection
1 mg/kg
  increase of pain threshold following a mechanical stimulus applied to the rats' paws: 65%
3 mg/kg
  increase of pain threshold following a mechanical stimulus applied to the rats' paws: 97%
